In PubChem BioAssay AID248 (DTP/NCI, 2004):
Where “and” joins values, the source holds several entries; their conditions need not be identical. Equal values may be shown once. Toxic doses and inconclusive results are not listed. Cut-off read from the data, not from the text of the source: active = T/C of 150% or more; inactive = T/C below 125%.

System: L1210 leukemia ip in BDF1 mice, survival T/C
Test: NCI In Vivo Anticancer Drug Screen. Data for tumor model L1210 Leukemia (intraperitoneal) in B6D2F1 (BDF1) mice
Details: endpoint: mean survival time, higher = longer survival
Method in brief: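 In this screen, tumor-bearing mice given compound are compared to those given vehicle, and their survival values are reported as a treated-to-control quotient.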

[1] = dose: 100.0 mg/kg/injection, schedule: Q04DX003 (ip), vehicle: saline
[2] = dose: 50.0 mg/kg/injection, schedule: Q01DX001 (ip), vehicle: carboxymethylcellulose (CMC)
[3] = dose: 100.0 mg/kg/injection, schedule: Q01DX001 (ip), vehicle: carboxymethylcellulose (CMC)
[4] = dose: 200.0 mg/kg/injection, schedule: Q01DX001 (ip), vehicle: carboxymethylcellulose (CMC)
[5] = dose: 100.0 mg/kg/injection, schedule: Q01DX009 (ip), vehicle: Klucel (hydroxypropylcellulose) (HPC)

Measured: T/C

OC1CCCC2CCC[N-]C12.OC1CCCC2CCC[N-]C12.[O]=[V][OH] (stereo not given)
inactive: dose: 24.0 mg/kg/injection, schedule: Q01DX015 (ip), vehicle: carboxymethylcellulose (CMC) 105 % of control | dose: 25.0 mg/kg/injection, schedule: Q04DX003 (ip), vehicle: saline 93 % of control | dose: 36.0 mg/kg/injection, schedule: Q01DX015 (ip), vehicle: carboxymethylcellulose (CMC) 105 % of control | dose: 50.0 mg/kg/injection, schedule: Q01DX001 (ip), vehicle: saline 100 % of control | dose: 50.0 mg/kg/injection, schedule: Q04DX003 (ip), vehicle: saline 93 % of control | dose: 54.0 mg/kg/injection, schedule: Q01DX015 (ip), vehicle: carboxymethylcellulose (CMC) 102 % of control | [1] 95 % of control

CCCCCCCCCC(=O)N1CCCC(C)C1 (stereo not given)
inactive: [2] 100 % of control | dose: 50.0 mg/kg/injection, schedule: Q01DX009 (ip), vehicle: carboxymethylcellulose (CMC) 94 % of control | dose: 50.0 mg/kg/injection, schedule: Q04DX003 (ip), vehicle: carboxymethylcellulose (CMC) 101 % of control | [3] 98 % of control | dose: 100.0 mg/kg/injection, schedule: Q01DX009 (ip), vehicle: carboxymethylcellulose (CMC) 90 % of control and 91 % of control | dose: 100.0 mg/kg/injection, schedule: Q04DX002 (ip), vehicle: carboxymethylcellulose (CMC) 93 % of control and 95 % of control | dose: 100.0 mg/kg/injection, schedule: Q04DX003 (ip), vehicle: carboxymethylcellulose (CMC) 95 % of control | [4] 94 % of control | dose: 200.0 mg/kg/injection, schedule: Q01DX009 (ip), vehicle: carboxymethylcellulose (CMC) 89 % of control | dose: 200.0 mg/kg/injection, schedule: Q04DX002 (ip), vehicle: carboxymethylcellulose (CMC) 101 % of control and 103 % of control | dose: 200.0 mg/kg/injection, schedule: Q04DX003 (ip), vehicle: carboxymethylcellulose (CMC) 97 % of control | dose: 400.0 mg/kg/injection, schedule: Q04DX002 (ip), vehicle: carboxymethylcellulose (CMC) 92 % of control

Brc1ccc(N=Cc2ccc3c(c2)OCO3)cc1
inactive: dose: 100.0 mg/kg/injection, schedule: Q04DX003 (ip), vehicle: gum acacia 96 % of control | dose: 200.0 mg/kg/injection, schedule: Q04DX003 (ip), vehicle: gum acacia 95 % of control | dose: 400.0 mg/kg/injection, schedule: Q04DX003 (ip), vehicle: gum acacia 90 % of control

NC1C2CC3CC(C2)CC1C3 (stereo not given)
inactive: dose: 5.0 mg/kg/injection, schedule: Q01DX001 (ip), vehicle: saline 102 % of control | dose: 10.0 mg/kg/injection, schedule: Q01DX001 (ip), vehicle: saline 98 % of control | dose: 20.0 mg/kg/injection, schedule: Q01DX001 (ip), vehicle: saline 107 % of control | dose: 40.0 mg/kg/injection, schedule: Q01DX001 (ip), vehicle: saline 96 % of control | dose: 75.0 mg/kg/injection, schedule: Q01DX001 (ip), vehicle: other 93 % of control | dose: 80.0 mg/kg/injection, schedule: Q01DX001 (ip), vehicle: saline 96 % of control

ClSSc1c2ccccc2cc2ccccc12
inactive: dose: 75.0 mg/kg/injection, schedule: Q01DX001 (ip), vehicle: carboxymethylcellulose (CMC) 91 % of control | dose: 150.0 mg/kg/injection, schedule: Q01DX001 (ip), vehicle: carboxymethylcellulose (CMC) 92 % of control | dose: 300.0 mg/kg/injection, schedule: Q01DX001 (ip), vehicle: carboxymethylcellulose (CMC) 88 % of control

COc1ccc(/C=C/c2ccc3ccccc3[n+]2C)c(OC)c1OC
inactive: dose: 5.0 mg/kg/injection, schedule: Q01DX009 (oral), vehicle: carboxymethylcellulose (CMC) 104 % of control | dose: 5.0 mg/kg/injection, schedule: Q04DX003 (ip), vehicle: saline with Tween-80 106 % of control | dose: 10.0 mg/kg/injection, schedule: Q01DX009 (oral), vehicle: carboxymethylcellulose (CMC) 98 % of control | dose: 10.0 mg/kg/injection, schedule: Q04DX003 (ip), vehicle: saline with Tween-80 114 % of control | dose: 20.0 mg/kg/injection, schedule: Q01DX009 (oral), vehicle: carboxymethylcellulose (CMC) 106 % of control | dose: 20.0 mg/kg/injection, schedule: Q04DX003 (ip), vehicle: saline with Tween-80 108 % of control | dose: 40.0 mg/kg/injection, schedule: Q01DX009 (oral), vehicle: carboxymethylcellulose (CMC) 109 % of control | dose: 80.0 mg/kg/injection, schedule: Q01DX009 (oral), vehicle: carboxymethylcellulose (CMC) 97 % of control

CCN(CC)CCCC(C)Nc1ncnc2ncc3c(c12)CCCC3 (stereo not given)
inactive: dose: 100.0 mg/kg/injection, schedule: Q04DX002 (ip), vehicle: saline 102 % of control | dose: 200.0 mg/kg/injection, schedule: Q04DX002 (ip), vehicle: saline 98 % of control

COc1cc([N+](=O)[O-])ccc1NC(=O)Oc1ccc(F)cc1Cl
inactive: [5] 94 % of control | dose: 200.0 mg/kg/injection, schedule: Q01DX009 (ip), vehicle: Klucel (hydroxypropylcellulose) (HPC) 88 % of control

O=C1OCCN1c1ccccc1
inactive: dose: 100.0 mg/kg/injection, schedule: Q01DX001 (ip), vehicle: Klucel (hydroxypropylcellulose) (HPC) 90 % of control | dose: 100.0 mg/kg/injection, schedule: Q01DX009 (ip), vehicle: saline with Tween-80 93 % of control | dose: 100.0 mg/kg/injection, schedule: Q04DX003 (ip), vehicle: saline with Tween-80 101 % of control | dose: 200.0 mg/kg/injection, schedule: Q01DX001 (ip), vehicle: Klucel (hydroxypropylcellulose) (HPC) 87 % of control | dose: 200.0 mg/kg/injection, schedule: Q01DX009 (ip), vehicle: saline with Tween-80 90 % of control | dose: 200.0 mg/kg/injection, schedule: Q04DX003 (ip), vehicle: saline with Tween-80 113 % of control | dose: 400.0 mg/kg/injection, schedule: Q01DX001 (ip), vehicle: Klucel (hydroxypropylcellulose) (HPC) 100 % of control | dose: 400.0 mg/kg/injection, schedule: Q01DX009 (ip), vehicle: saline with Tween-80 93 % of control | dose: 400.0 mg/kg/injection, schedule: Q04DX003 (ip), vehicle: saline with Tween-80 95 % of control

COc1ccc(OC)c(C(=O)CCC(=O)O)c1
inactive: [2] 94 % of control | [3] 110 % of control | [4] 100 % of control | dose: 400.0 mg/kg/injection, schedule: Q01DX001 (ip), vehicle: carboxymethylcellulose (CMC) 107 % of control

CCCc1cn(C(=O)NC2CCCCC2)c2ccccc12
inactive: dose: 100.0 mg/kg/injection, schedule: Q01DX001 (ip), vehicle: saline 94 % of control | [1] 106 % of control | dose: 200.0 mg/kg/injection, schedule: Q01DX001 (ip), vehicle: saline 94 % of control | dose: 200.0 mg/kg/injection, schedule: Q04DX003 (ip), vehicle: saline 112 % of control | dose: 400.0 mg/kg/injection, schedule: Q01DX001 (ip), vehicle: saline 87 % of control | dose: 400.0 mg/kg/injection, schedule: Q04DX003 (ip), vehicle: saline 93 % of control

C=CCN1/C(=C\C=C\c2ccc3cc(C)ccc3[n+]2CC=C)C=Cc2cc(C)ccc21
inactive: dose: 1.17 mg/kg/injection, schedule: Q01DX001 (ip), vehicle: steriod suspending solution 111 % of control

CCN(CC)CCCC#CCN1CCCCC1
inactive: dose: 25.0 mg/kg/injection, schedule: Q01DX009 (ip), vehicle: Klucel (hydroxypropylcellulose) (HPC) 100 % of control | dose: 25.0 mg/kg/injection, schedule: Q04DX003 (ip), vehicle: Klucel (hydroxypropylcellulose) (HPC) 103 % of control | dose: 50.0 mg/kg/injection, schedule: Q01DX009 (ip), vehicle: Klucel (hydroxypropylcellulose) (HPC) 101 % of control | dose: 50.0 mg/kg/injection, schedule: Q04DX003 (ip), vehicle: Klucel (hydroxypropylcellulose) (HPC) 106 % of control | [5] 102 % of control | dose: 100.0 mg/kg/injection, schedule: Q04DX003 (ip), vehicle: Klucel (hydroxypropylcellulose) (HPC) 103 % of control

Clc1ccc2scc3c4ccccc4nc-3c2c1
inactive: dose: 100.0 mg/kg/injection, schedule: Q04DX003 (ip), vehicle: acetone 102 % of control
